#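 Cultured in 96-well plates, cells were exposed to test compound for 48 hours across five concentrations. TGI marks complete inhibition of growth.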
# What was measured:
# Experiment in all cases: inhibition of tumour cell growth, NCI panel, 48 h
# SK-MEL-28 melanoma = system: SK-MEL-28 melanoma
# DMS 273 small cell lung = system: DMS 273 small cell lung
# SR leukemia = system: SR leukemia
# IGROV1 ovarian = system: IGROV1 ovarian
# RXF 393 renal = system: RXF 393 renal
# A498 renal = system: A498 renal
# NCI-H23 lung = system: NCI-H23 lung
# UACC-62 melanoma = system: UACC-62 melanoma
# LXFL 529 NSCLC = system: LXFL 529 NSCLC
# HCT-15 colon = system: HCT-15 colon
# HOP-62 NSCLC = system: HOP-62 NSCLC
# TK-10 renal = system: TK-10 renal
# SK-OV-3 ovarian = system: SK-OV-3 ovarian
# RXF-631 renal = system: RXF-631 renal
# SF-268 CNS = system: SF-268 CNS
# KM20L2 colon = system: KM20L2 colon
# HCT-116 colon = system: HCT-116 colon
# SW-620 colon = system: SW-620 colon
# DLD-1 colon = system: DLD-1 colon
# OVCAR-5 ovarian = system: OVCAR-5 ovarian
# OVCAR-8 ovarian = system: OVCAR-8 ovarian
# 786-0 renal = system: 786-0 renal
# KM12 colon = system: KM12 colon
# HOP-18 NSCLC = system: HOP-18 NSCLC
# RPMI-8226 leukemia = system: RPMI-8226 leukemia
# SK-MEL-2 melanoma = system: SK-MEL-2 melanoma
# MOLT-4 leukemia = system: MOLT-4 leukemia
# XF 498 CNS = system: XF 498 CNS
# MALME-3M melanoma = system: MALME-3M melanoma
# SNB-75 CNS = system: SNB-75 CNS
# OVCAR-4 ovarian = system: OVCAR-4 ovarian
# K-562 leukemia = system: K-562 leukemia
# CAKI-1 renal = system: CAKI-1 renal
# DMS 114 small cell lung = system: DMS 114 small cell lung
# ACHN renal = system: ACHN renal
# HCC-2998 colon = system: HCC-2998 colon
# HL-60(TB) leukemia = system: HL-60(TB) leukemia
# SNB-78 CNS = system: SNB-78 CNS
# EKVX NSCLC = system: EKVX NSCLC
# HT29 colon = system: HT29 colon
# SK-MEL-5 melanoma = system: SK-MEL-5 melanoma
# UO-31 renal = system: UO-31 renal
# SN12C renal = system: SN12C renal
# M19-MEL melanoma = system: M19-MEL melanoma
# SF-295 CNS = system: SF-295 CNS
# SF-539 CNS = system: SF-539 CNS
# NCI-H460 lung = system: NCI-H460 lung
# M14 melanoma = system: M14 melanoma
# CCRF-CEM leukemia = system: CCRF-CEM leukemia
# SNB-19 CNS = system: SNB-19 CNS
# A549 NSCLC = system: A549 NSCLC
# UACC-257 melanoma = system: UACC-257 melanoma
# LOX IMVI melanoma = system: LOX IMVI melanoma
# U251 CNS = system: U251 CNS
# NCI-H522 lung = system: NCI-H522 lung
# OVCAR-3 ovarian = system: OVCAR-3 ovarian
# COLO 205 colon = system: COLO 205 colon
# NCI-H226 lung = system: NCI-H226 lung
# HOP-92 NSCLC = system: HOP-92 NSCLC
compound,measurement,setting,value
CC(C)(C)c1cc(Cc2ccc([N+](C)(C)C)cc2)c(O)c(C(C)(C)C)c1,TGI,SK-MEL-28 melanoma,25 µM
same,TGI,DMS 273 small cell lung,22.2 µM
same,TGI,SR leukemia,29.8 µM
same,TGI,IGROV1 ovarian,28.1 µM
same,TGI,RXF 393 renal,38.4 µM
same,TGI,A498 renal,> 100 µM
same,TGI,NCI-H23 lung,36.1 µM
same,TGI,UACC-62 melanoma,27.9 µM
same,TGI,LXFL 529 NSCLC,27.1 µM
same,TGI,HCT-15 colon,> 100 µM
same,TGI,HOP-62 NSCLC,33.5 µM
same,TGI,TK-10 renal,78.4 µM
same,TGI,SK-OV-3 ovarian,95.1 µM
same,TGI,RXF-631 renal,> 100 µM
same,TGI,SF-268 CNS,28.5 µM
same,TGI,KM20L2 colon,74.8 µM
same,TGI,HCT-116 colon,31.5 µM
same,TGI,SW-620 colon,59.2 µM
same,TGI,DLD-1 colon,> 100 µM
same,TGI,OVCAR-5 ovarian,59.7 µM
same,TGI,OVCAR-8 ovarian,35.9 µM
same,TGI,786-0 renal,57.7 µM
same,TGI,KM12 colon,29.6 µM
same,TGI,HOP-18 NSCLC,47.3 µM
same,TGI,RPMI-8226 leukemia,31.9 µM
same,TGI,SK-MEL-2 melanoma,30.2 µM
same,TGI,MOLT-4 leukemia,26.1 µM
same,TGI,XF 498 CNS,25.9 µM
same,TGI,MALME-3M melanoma,34.2 µM
same,TGI,SNB-75 CNS,22.1 µM
same,TGI,OVCAR-4 ovarian,> 100 µM
same,TGI,K-562 leukemia,28.1 µM
same,TGI,CAKI-1 renal,> 100 µM
same,TGI,DMS 114 small cell lung,20.2 µM
same,TGI,ACHN renal,> 100 µM
same,TGI,HCC-2998 colon,29.9 µM
same,TGI,HL-60(TB) leukemia,8.27 µM
same,TGI,SNB-78 CNS,31.3 µM
same,TGI,EKVX NSCLC,> 100 µM
same,TGI,HT29 colon,32.7 µM
same,TGI,SK-MEL-5 melanoma,22.9 µM
same,TGI,UO-31 renal,> 100 µM
same,TGI,SN12C renal,28.7 µM
same,TGI,M19-MEL melanoma,26.6 µM
same,TGI,SF-295 CNS,67.5 µM
same,TGI,SF-539 CNS,30.5 µM
same,TGI,NCI-H460 lung,37.9 µM
same,TGI,M14 melanoma,40.9 µM
same,TGI,CCRF-CEM leukemia,29.1 µM
same,TGI,SNB-19 CNS,25.9 µM
same,TGI,A549 NSCLC,> 100 µM
same,TGI,UACC-257 melanoma,31.7 µM
same,TGI,LOX IMVI melanoma,30.6 µM
same,TGI,U251 CNS,25.4 µM
C[C@]12Cc3cn[nH]c3C(=O)C1CC[C@@H]1C2CC[C@@]2(C)C1CC[C@]2(C)O (some centres not stated),TGI,SK-MEL-28 melanoma,> 100 µM
same,TGI,DMS 273 small cell lung,> 100 µM
same,TGI,IGROV1 ovarian,> 100 µM
same,TGI,NCI-H522 lung,> 100 µM
same,TGI,RXF 393 renal,> 100 µM
same,TGI,A498 renal,> 100 µM
same,TGI,NCI-H23 lung,> 100 µM
same,TGI,UACC-62 melanoma,> 100 µM
same,TGI,LXFL 529 NSCLC,> 100 µM
same,TGI,OVCAR-3 ovarian,> 100 µM
same,TGI,HCT-15 colon,> 100 µM
same,TGI,HOP-62 NSCLC,> 100 µM
same,TGI,TK-10 renal,> 100 µM
same,TGI,SK-OV-3 ovarian,> 100 µM
same,TGI,RXF-631 renal,> 100 µM
same,TGI,SF-268 CNS,> 100 µM
same,TGI,KM20L2 colon,> 100 µM
same,TGI,HCT-116 colon,> 100 µM
same,TGI,SW-620 colon,> 100 µM
same,TGI,DLD-1 colon,> 100 µM
same,TGI,OVCAR-5 ovarian,> 100 µM
same,TGI,OVCAR-8 ovarian,> 100 µM
same,TGI,786-0 renal,> 100 µM
same,TGI,KM12 colon,> 100 µM
same,TGI,HOP-18 NSCLC,> 100 µM
same,TGI,RPMI-8226 leukemia,> 100 µM
same,TGI,SK-MEL-2 melanoma,> 100 µM
same,TGI,MOLT-4 leukemia,> 100 µM
same,TGI,XF 498 CNS,> 100 µM
same,TGI,COLO 205 colon,> 100 µM
same,TGI,MALME-3M melanoma,> 100 µM
same,TGI,SNB-75 CNS,> 100 µM
same,TGI,OVCAR-4 ovarian,> 100 µM
same,TGI,K-562 leukemia,> 100 µM
same,TGI,CAKI-1 renal,> 100 µM
same,TGI,DMS 114 small cell lung,> 100 µM
same,TGI,ACHN renal,> 100 µM
same,TGI,HCC-2998 colon,> 100 µM
same,TGI,HL-60(TB) leukemia,> 100 µM
same,TGI,SNB-78 CNS,> 100 µM
same,TGI,EKVX NSCLC,> 100 µM
same,TGI,HT29 colon,> 100 µM
same,TGI,SK-MEL-5 melanoma,> 100 µM
same,TGI,UO-31 renal,> 100 µM
same,TGI,SN12C renal,> 100 µM
same,TGI,M19-MEL melanoma,> 100 µM
same,TGI,SF-295 CNS,> 100 µM
same,TGI,SF-539 CNS,> 100 µM
same,TGI,NCI-H460 lung,> 100 µM
same,TGI,M14 melanoma,> 100 µM
same,TGI,CCRF-CEM leukemia,> 100 µM
same,TGI,SNB-19 CNS,> 100 µM
same,TGI,NCI-H226 lung,> 100 µM
same,TGI,A549 NSCLC,> 100 µM
same,TGI,UACC-257 melanoma,> 100 µM
same,TGI,LOX IMVI melanoma,> 100 µM
same,TGI,U251 CNS,> 100 µM
same,TGI,HOP-92 NSCLC,> 100 µM
